These results are taken from patent US5607850A, “Enzyme from microbial source: phthalyl amidase” (Eli Lilly and Company, priority 1995, dated 1997).

Holding throughout (format): biochemical
Experiment [1] has as its target T1, phthalyl amidase (Xanthobacter agilis, UniProt P0C2Y0). Briefly: Preparative scale enzymatic hydrolysis to carbacephem nucleus. Conditions: 510 minutes, 30° C., pH 8.0, 80 units enzyme. On the procedure: Thus, either compound XXXIII or III can be used to prepare the carbacephem nucleus (XXXIV). Substrate (5 grams) was added to 20 ml of deionized water and the pH of the solution was adjusted to 8.0 with concentrated ammonium hydroxide. Phthalyl amidase, 80 units as determined using the chromogenic substrate (II), was added to start the reaction. Temperature was maintained at 30° C. and the pH maintained at 8.0 by adding 2 N ammonium hydroxide. […] The pH of the reaction was lowered to 5.0 thereby precipitating the carbacephem nucleus. Isolated yields of the nucleus were between 65% and 77%. [drawing 26]

Experiment [2] concerns the target T1, phthalyl amidase. Briefly: Substrate specificity of phthalyl amidase (Tables 9-11). Particulars: Table 9, beta-lactams; 30° C., pH 8.0. On the procedure:
the activity of phthalyl amidase against 25 compounds was determined. The compounds were divided into beta-lactams (Table 9), phthalyl amides (Table 10), and aromatic ring substituted amides (Table 11). Each reaction mixture (1 ml total volume) contained 2.5 μmol of compound and 0.3 units of enzyme (based on the chromogenic substrate) of the preparative scale purified enzyme, in 50 mM phosphate buffer, pH 8.0. The reactions were conducted at 30° C. Samples of the reaction mixture were taken at various times, and methanol (equal value) was added to stop the reaction. The samples were examined by HPLC to determine the extent of substrate hydrolysis. The amount of compound hydrolyzed was calculated from a standard curve of the test compound. All substrates were stable in buffer at 30° C. and pH 8.0 in the absence of enzyme for 24 hours.

Experiment [3] deals with T1, phthalyl amidase. Put plainly: Kinetic parameters for phthalyl amidase. Conditions: Table 12; 32° C., pH 8.2. The protocol:
The kinetic parameters of the enzyme were determined for several representative substrates. Compounds II, XVII, and XVIII were tested using 0.9 μg/ml of enzyme. Compounds III and XI were tested using 5.14 μg/ml of enzyme. Substrate concentrations were between 0 and 25 mM and reaction time was between 2 and 20 minutes, depending on the substrate used. All reactions were run at 32° C. and at pH 8.2. Km is the Michaelis constant for enzyme kinetics, Vmax is the maximal rate of reaction calculated by the Michaelis-Menten equation, and Kcat is the catalytic constant for an enzyme reaction.

Experiment [4] addresses T1, phthalyl amidase. Briefly: Chiral and additional substrate selectivity of phthalyl amidase (Table 13). Particulars: Table 13; 30° C., 2 minutes. The protocol:
Several additional substrates were tested in a total volume of 1 ml. […] Reactions were stopped by the addition of methanol, and phthalic acid formation was monitored by HPLC.

One may read the Km as the concentration of substrate that gives half-maximal velocity.

T1 sequence (P0C2Y0 2-453): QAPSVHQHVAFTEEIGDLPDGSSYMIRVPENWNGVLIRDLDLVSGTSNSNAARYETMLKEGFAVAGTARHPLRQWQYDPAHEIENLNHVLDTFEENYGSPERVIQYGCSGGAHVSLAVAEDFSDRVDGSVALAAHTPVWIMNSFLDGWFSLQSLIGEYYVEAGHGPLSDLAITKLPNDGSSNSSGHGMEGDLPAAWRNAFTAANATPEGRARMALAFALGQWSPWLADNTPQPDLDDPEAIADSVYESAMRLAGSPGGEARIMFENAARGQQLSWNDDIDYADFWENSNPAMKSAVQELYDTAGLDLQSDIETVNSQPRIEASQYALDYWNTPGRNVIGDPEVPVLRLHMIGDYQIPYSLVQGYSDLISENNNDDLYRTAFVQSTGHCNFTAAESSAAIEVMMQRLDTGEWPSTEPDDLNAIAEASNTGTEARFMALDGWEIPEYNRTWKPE

`O=C(O)C1=C(Cl)CCC2C(N3C(=O)c4ccccc4C3=O)C(=O)N12` (stereo not drawn) [XXXIII, Phthalimido carbacephem] had a hydrolyzed at phthalyl amidase [1] of 98%.
In the case of `O=C(O)C1=C(Cl)CCC2C(NC(=O)c3ccccc3C(=O)O)C(=O)N12` (stereo not drawn) [III, 7-phthalamido-3-chloro-4-carboxy-1-carba-dethioceph-3-em], at phthalyl amidase [2], the Relative Activity stood at 100. At phthalyl amidase [3], the Michaelis constant (Km) was 900 µM and the Vmax is recorded as 7.6 μmol/sec/μmol. For the same molecule, the “Relative Activity” value on phthalyl amidase [4] is 100. This molecule yielded a hydrolyzed at phthalyl amidase [1] of 90.0%.
